Reference: patent publication US11007181B2, “Cyclopamine analogs” (Infinity Pharmaceuticals, Inc., priority 2006, dated 2021)

Legend:
Hedgehog pathway = test: Inhibition of the Hedgehog pathway in cell culture: C3H10T1/2 osteoblast differentiation, alkaline phosphatase assay; type: cell-based, Mouse; conditions: approximate EC50 for inhibition, C3H10T1/2 cells, sonic Hedgehog 250 ng/ml, alkaline phosphatase activity normalized to total protein
Source text: Hedgehog pathway specific cancer cell killing effects may be ascertained using the following assay. C3H10T1/2 cells differentiate into osteoblasts when contacted with the sonic hedgehog peptide (Shh-N). Upon differentiation; these osteoblasts produce high levels of alkaline phosphatase (AP) which can be measured in an enzymatic assay (Nakamura et al., 1997 BBRC 237: 465). Compounds that block the differentiation of C3H10T1/2 into osteoblasts (a Shh dependent event) can therefore be identified by a reduction in AP production (van der Horst et al., 2003 Bone 33: 899). The assay details are described below. The results approximate (EC50 for inhibition) of the differentiation assay is shown below in Table 1.
Mouse embryonic mesoderm fibroblasts C3H10T1/2 cells (obtained from ATCC) were cultured in Basal MEM Media (Gibco/Invitrogen) supplemented with 10% heat inactivated FBS (Hyclone), 50 units/ml penicillin and 50 ug/ml streptomycin (Gibco/Invitrogen) at 37 C with 5% CO2 in air atmosphere.
C3H10T1/2 cells were plated in 96 wells with a density of 8×10^3 cells/well. Cells were grown to confluence (72 hrs). After sonic Hedgehog (250 ng/ml), and/or compound treatment, the cells were lysed in 110 μL, of lysis buffer (50 mM Tris pH 7.4, 0.1% TritonX100), plates were sonicated and lysates spun through 0.2 μm PVDF plates (Corning). 40 μL, of lysates was assayed for AP activity in alkaline buffer solution (Sigma) containing 1 mg/ml p-Nitrophenyl Phosphate. After incubating for 30 min at 37° C., the plates were read on an Envision plate reader at 405 nm. Total protein was quantified with a BCA protein assay kit from Pierce according to manufacturer's instructions. AP activity was normalized against total protein.

BXPC-3 cells = test: Pancreatic cancer model: BXPC-3 subcutaneous tumors in mice, tumor volume; type: in vivo, human; conditions: 40 mg/kg/day, 25 daily doses, p=0.0309
Description: (§1) The activity of Compound 42 was tested in a human pancreatic model: BXPC-3 cells were implanted subcutaneously into the flanks of the right legs of mice. On day 42 post-tumor implant, the mice were randomized into two groups to receive either Vehicle (30% HPBCD) or Compound 42. Compound 42 was dosed at 40 mg/kg/day. […] At the end of the study, the tumors were harvested 4 hours post the last dose to evaluate an on target response by q-RT-PCR analysis of the HH pathway genes.

human Gli-1 = test: Pancreatic cancer model: q-RT-PCR of HH pathway genes in harvested tumors, human Gli-1; type: in vivo; conditions: BXPC-3 tumors harvested 4 hours post last dose, 40 mg/kg/day
Description: as §1

murine Gli-1 mRNA = test: Pancreatic cancer model: q-RT-PCR of HH pathway genes in harvested tumors, murine Gli-1; type: in vivo; conditions: BXPC-3 tumors harvested 4 hours post last dose, 40 mg/kg/day, vs Vehicle group
Description: as §1

Gli-1 mRNA = test: Medulloblastoma model: Ptch1/Hic1 subcutaneous allografts, Gli-1 mRNA expression; type: in vivo, mouse; conditions: single oral dose, subcutaneously implanted medulloblastoma tumors, 8 hours post dose
Description: (§2) The activity of Compound 42 was also evaluated in a transgenic mouse model of medulloblastoma. Mice that are heterozygous for loss of function mutations in the tumor suppressors Patched1 (Ptch1) and Hypermethylated in Cancer (Hic1) develop spontaneous medulloblastoma. […] When passaged as subcutaneous allografts, these tumors grow aggressively and are Hedgehog pathway-dependent. This model was employed to evaluate the efficacy of orally administered Compound, and to correlate activity with drug exposure in plasma and tumors.

medulloblastoma = test: Medulloblastoma model: Ptch1/Hic1 subcutaneous allografts, tumor growth and survival; type: in vivo, mouse; conditions: daily (QD) PO administration
Description: as §2
The approximate effective daily oral dose for 50% inhibition of tumor growth (ED50) is 4 mg/kg.

LX22 cells = test: Lung cancer model: LX22 primary SCLC xenograft in mice; type: in vivo, human
Source text: To test the activity of Compound 42 in a human SCLC tumor model, LX22 cells were implanted subcutaneously into the flank of the right leg. LX22 is primary xenograft model of SCLC derived from chemo-naive patients, which has been maintained by mouse to mouse passaging. This tumor responds to etoposide/carboplatin chemotherapy in way that closely resembles a clinical setting. LX22 regresses during chemotherapy treatment, goes through a period of remission, and then begins to recur. In the LX22 model, Compound single agent activity and its ability to modulate the chemoresistant recurrence was tested. On day 32 post tumor implant, mice were randomized into three dosing groups to receive Vehicle (30% HBPCD), Compound, or the chemotherapy combination of etoposide and carboplatin (E/P). […] Etoposide was administered i.v at 12 mg/kg on days 34, 35, 36, and 48, while Carboplatin was administered i.v. at 60 mg/kg on days 34, 41, and 48, post tumor implant. On day 50, the E/P treated mice were further randomized to receive either Vehicle (30% HPBCD) or Compound follow up treatment.

Oral multi-dose MTD = type: in vivo, mice

CC1=C2C[C@H]3[C@@H](CC[C@@H]4CC(=O)CC[C@@]43C)[C@@H]2CC[C@@]2(C1)O[C@@H]1C[C@H](C)CN(C(C)C)[C@H]1[C@H]2C [Compound 10]
EC50 (Hedgehog pathway): > 0.1 µM

CC1=C2C[C@H]3[C@@H](CC[C@@H]4C[C@H](NS(C)(=O)=O)CC[C@@]43C)[C@@H]2CC[C@@]2(C1)O[C@@H]1C[C@H](C)CN[C@H]1[C@H]2C [Compound 42]
reduction of tumor volume growth compared to vehicle control (BXPC-3 cells): 40% | human Gli-1 modulation (q-RT-PCR) (human Gli-1): no modulation | murine Gli-1 mRNA levels (q-RT-PCR) (murine Gli-1 mRNA): robust down-regulation | HH pathway modulation measured by Gli-1 mRNA expression (Gli-1 mRNA): dose-dependent down-regulation of the HH pathway | tumor growth (medulloblastoma): dose dependent inhibition of tumor growth, with frank tumor regression seen at higher doses | single agent activity, treated vs vehicle groups (LX22 cells; 40 mg/kg/day, 16 consecutive doses): no measurable difference between the treated and vehicle groups | tumor recurrence after etoposide/carboplatin (E/P) chemotherapy (LX22 cells; follow up treatment from day 50, 40 mg/kg/day oral, 35 consecutive doses, vs vehicle, p=0.0101): substantial delay in tumor recurrence | oral multi-dose MTD (Oral multi-dose MTD): 40 mg/kg/day

CC1=C2C[C@H]3[C@@H](CC=C4C[C@@H](O)CC[C@@]43C)[C@@H]2CC[C@@]2(C1)O[C@@H]1C[C@H](C)CN[C@H]1[C@H]2C [Compound 8]
EC50 (Hedgehog pathway): > 0.1 µM

CC1=C2C[C@H]3[C@@H](CC[C@@H]4C[C@@H](OC(=O)CN)CC[C@@]43C)[C@@H]2CC[C@@]2(C1)O[C@@H]1C[C@H](C)CN[C@H]1[C@H]2C [Compound 40]
EC50 (Hedgehog pathway; Mus musculus, C3H 10T1/2): < 0.02 µM
